Data: BindingDB's records for doi:10.7270/Q28S4S3D (n/a, 1997)

Target: T1, E-selectin (Homo sapiens, UniProt P16581)
T1 sequence (P16581 whole entry): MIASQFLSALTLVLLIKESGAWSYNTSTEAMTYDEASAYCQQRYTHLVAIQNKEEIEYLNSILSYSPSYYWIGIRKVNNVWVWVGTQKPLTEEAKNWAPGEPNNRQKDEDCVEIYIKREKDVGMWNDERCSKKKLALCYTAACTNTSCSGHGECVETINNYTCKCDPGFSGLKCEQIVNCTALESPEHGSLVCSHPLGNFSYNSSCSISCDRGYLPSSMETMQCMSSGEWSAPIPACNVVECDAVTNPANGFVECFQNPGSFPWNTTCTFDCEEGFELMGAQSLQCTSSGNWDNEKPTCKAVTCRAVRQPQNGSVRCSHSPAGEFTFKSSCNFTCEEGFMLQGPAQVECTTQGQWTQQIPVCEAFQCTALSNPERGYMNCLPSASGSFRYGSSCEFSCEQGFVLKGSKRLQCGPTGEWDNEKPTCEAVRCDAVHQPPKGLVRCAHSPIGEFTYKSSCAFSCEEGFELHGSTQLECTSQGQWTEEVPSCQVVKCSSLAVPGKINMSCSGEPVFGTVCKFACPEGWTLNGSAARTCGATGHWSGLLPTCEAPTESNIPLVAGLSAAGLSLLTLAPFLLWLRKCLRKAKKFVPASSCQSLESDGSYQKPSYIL
Assay: Tested in vitro to inhibit cell adhesion of HL-60 cells to recombinant human soluble Selectin E

IC50 [µM]	SMILES
90.2	C=CC(=O)NCCCCCCO[C@@H]1O[C@@H](CO)[C@@H](O[C@@H]2O[C@@H](CO)[C@H](O)[C@H](O[C@]3(C(=O)O)C[C@@H](O)[C@@H](NC(C)=O)[C@H]([C@H](O)[C@H](O)CO)O3)[C@@H]2O)[C@H](O[C@@H]2O[C@@H](C)[C@@H](O)[C@H](O)[C@@H]2O)[C@@H]1NC(=O)c1ccc2ccccc2c1
1760	CCO[C@@H]1O[C@@H](CO)[C@@H](O[C@@H]2O[C@@H](CO)[C@H](O)[C@H](O[C@]3(C(=O)O)C[C@@H](O)[C@@H](NC(C)=O)[C@H]([C@H](O)[C@H](O)CO)O3)[C@@H]2O)[C@H](O[C@@H]2O[C@@H](C)[C@@H](O)[C@H](O)[C@@H]2O)[C@@H]1NC(C)=O
